# Experimental data from patent US20240390377A1, “COMPOSITION FOR THE PREVENTION OR TREATMENT OF NEURODEGENERATIVE OR MOTOR NEURON DISEASES COMPRISING HALOFUGINONE AS AN ACTIVE INGREDIENT” (CURAMYS CO., LTD., priority 2022, published 2024).
# Tested on: G93A mutant SOD1 transgenic mice
# Experiment: Immunohistochemical analysis of lumbar spinal cord in ALS animal model
# Type: in vivo, mouse
# Experimental: As a control group, non-transgenic mice were injected intraperitoneally (i.p.) with vehicle (DMSO) in the same manner for the same period of time.
# Specifically, the mice of Example 6 above were perfused with 4% paraformaldehyde (PFA) on 90 and 120 days of age, and the lumbar spinal cord and knee joints were separated. After fixation in 4% PFA for 24 hours, the knee joints were rinsed in running tap water for 24 hours and then incubated at 4° C. with continuous shaking in decalcifying solution (Calci-Clear, HS-104, National Diagnostics). The decalcification solution was replaced daily with fresh solution until the bones were easily penetrated with a needle, indicating completion of the decalcification process. Subsequently, the decalcified knee joints were rinsed in running tap water for 24 hours, and the spinal cord and knee joint samples were treated with 30% sucrose until they sank, followed by freeze protection, followed by successive cuts (14 μm). The lumbar spinal cord and knee joint tissue sections were washed three times with PBS and permeabilized with 0.5% Triton X-100 for 5 minutes. Subsequently, they were blocked with 5% bovine serum albumin (BSA) in 0.3% PBS-T at room temperature for 1 hour. The knee joint tissue sections were incubated with anti-TGF-β1 antibody (1:200; Santa Cruz, cat #sc130348), anti-α-SMA antibody (1:200; Abcam, cat #ab7817), anti-MyoD antibody (1:200; Santa Cruz, cat #sc377460), and anti-Collagen I antibody (1:200; Abcam, cat #ab21286) each, while the lumbar spinal cord sections were incubated with anti-GFAP antibody (1:200; Dako, cat #Z0334), anti-Iba1 antibody (1:200; Wako, cat #016)-20001), anti-TGF-β1 antibody (1:200; Santa Cruz, cat #sc130348), anti-TGF-β1 antibody (1:200; Abcam, cat #ab92486), and anti-IL-1β antibody (1:200; R&D Systems, cat #AF-401-NA) at 4° C. for an additional 24 hours. After washing the sections three times with PBS, they were incubated with Alexa Fluor secondary antibodies in a dark chamber at room temperature for 1 hour. […] Furthermore, analysis was performed using Leica Application Suite X software (Leica Microsystems).
# Specifically, halofuginone was administered to G93A mutant SOD1 mice in the same manner as described in <Example 6>, and immunohistochemical analysis was performed in the same manner as described in <Example 8> to identify TGF-β1 and glial cells in the lumbar spinal cord. Considering that TGF-β derived from astrocytes has been reported to accelerate disease in ALS mice, each group's spinal cord was co-stained with TGF-β and GFAP during immunohistochemical analysis. In addition, Iba1 staining was performed to confirm the activity of microglia (FIGS. 9a and 9b).
# In addition, to investigate the effect of glial changes in TGF-β and CNS on inflammation, IL-1β, a representative pro-inflammatory cytokine, was simultaneously stained with GFAP during immunohistochemical analysis (FIG. 9c).
# In addition, halofuginone was administered to G93A mutant SOD1 mice in the same manner as described in Example 6. After sacrificing the mice at 90 days of age, Iba1 staining was performed to confirm the activation of microglia (FIG. 10a), and motor neurons were observed and counted using the same method as described above (FIG. 10b).
smiles,measurement,setting,value
O=C(C[C@H]1NCCC[C@@H]1O)Cn1cnc2cc(Br)c(Cl)cc2c1=O (racemic) [halofuginone],"microglia activity (Iba1) in lumbar spinal cord, compared with changes at 120 days",90-day-old mice (FIG. 10a),similar
same,microglia (Iba1) in lumbar spinal cord,120-day-old mice (FIG. 9a),continuously increased
same,increase in TGF-β1 in lumbar spinal cord,120-day-old mice (FIG. 9b),significantly reduced
same,increase in astrocyte activity (GFAP) in lumbar spinal cord,120-day-old mice (FIG. 9b),significantly reduced
same,activated inflammation (IL-1β with GFAP activity) in lumbar spinal cord,120-day-old mice (FIG. 9c),suppressed
